Experimental data taken from US11040028B2, “Penicinotam derivative, preparation method and use thereof” (OCEAN UNIVERSITY OF CHINA, priority 2017, dated 2021).

How the values were obtained:
Format in all cases: cell-based
[1] = test system: human hepatic stellate cells LX-2; test: Anti-fibrosis activity test: inhibition of proliferation of human hepatic stellate cells LX-2 (CCK-8); settings: Homo sapiens, 48 h
Summary of the method: (§1)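 Proliferation inhibition is measured by CCK-8 after cells plated at 2×10^4 cells/mL attach overnight (24 h) and then receive test compounds for 48 h at several concentrations, each in triplicate. Optical density at 450 nm gives IR = (1−Ai/Ao)×100%, from which IC50 is computed.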

[2] = test system: human embryonic lung fibroblast IMR-90; test: Anti-fibrosis activity test: inhibition of proliferation of human embryonic lung fibroblast IMR-90 (CCK-8)
Summary of the method: as §1

[3] = test system: cardiac fibroblast RAT-iCell-C002; test: Anti-fibrosis activity test: inhibition of proliferation of cardiac fibroblast RAT-iCell-C002 (CCK-8); settings: Cardiac fibroblast, 48 h
Summary of the method: as §1

[4] = test system: mouse macrophages (RAW264.7); test: Lipopolysaccharide-induced NO secretion in macrophages (Griess); settings: Mus musculus, RAW264.7, 24 h, RAW264.7, LPS 1 μg/ml, a/b isomers given as first/second symbol, read-out: IC50 (μM), inhibition of lipopolysaccharide-induced NO secretion in macrophages
Summary of the method: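 Indomethacin and resveratrol served as positive controls while compounds were tested across concentrations on LPS-stimulated (1 μg/ml, 24 h) RAW264.7 cells. NO output was quantified colorimetrically (Griess, 548 nm).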

[5] = test system: human fibrosarcoma cells HT-1080; test: Anti-fibrosis activity test: inhibition of proliferation of human fibrosarcoma cells HT-1080 (CCK-8); settings: Homo sapiens, HT-1080, 48 h
Summary of the method: as §1

[6] = test system: human lung fibroblasts HFL1; test: Anti-fibrosis activity test: inhibition of proliferation of human lung fibroblasts HFL1 (CCK-8); settings: Homo sapiens, HFL1, 48 h
Summary of the method: as §1

BHK-21 cells = test: Anti-fibrosis activity test: inhibition of BHK-21 cell proliferation (CCK-8); settings: Mesocricetus auratus, BHK-21, 48 h
Summary of the method: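 BHK-21 cells seeded at 2×10^4 cells/mL, allowed to adhere 24 h at 37° C, 5% CO2, then exposed to compounds at graded concentrations in triplicate for 48 h. CCK-8 added for 2 h and absorbance read at 450 nm; inhibition rate taken as (1−Ai/Ao)×100% and IC50 fitted.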

[7] = test system: human dermal fibroblasts CCC-ESF-1; test: Anti-fibrosis activity test: inhibition of proliferation of human dermal fibroblasts CCC-ESF-1 (CCK-8); settings: Fibroblast
Summary of the method: as §1

[8] = human hepatic stellate cells LX-2, CCK-8, 48 hours
[9] = human embryonic lung fibroblast IMR-90, CCK-8, 48 hours
[10] = cardiac fibroblast RAT-iCell-C002, CCK-8, 48 hours
[11] = human fibrosarcoma cells HT-1080, CCK-8, 48 hours
[12] = human lung fibroblasts HFL1, CCK-8, 48 hours
[13] = CCK-8, 48 hours after administration
[14] = human dermal fibroblasts CCC-ESF-1, CCK-8, 48 hours
[15] = Homo sapiens, IMR-90 cells, 48 h, CCK-8
[16] = Homo sapiens, CCC-ESF-1 cells, 48 h, CCK-8

Row | IC50 [4] [µM] | IC50 [5, 11] [mM] | IC50 ([5]; HT-1080 cells, 48 h, CCK-8) [mM] | Compound | IC50 [1, 8] [mM] | IC50 [2, 9] [mM] | IC50 [3, 10] [mM] | IC50 [6, 12] [mM] | IC50 (BHK-21 cells; [13]) [mM] | IC50 [7, 14] [mM] | IC50 ([1]; LX-2, 48 h, LX-2 cells, CCK-8) [mM] | IC50 [2, 15] [mM] | IC50 ([3]; RAT-iCell-C002 cells, CCK-8) [mM] | IC50 ([6]; HFL1 cells, 48 h, CCK-8) [mM] | IC50 (BHK-21 cells; 48 h, CCK-8) [mM] | IC50 [7, 16] [mM]
1 | 1 to 10 | 0.05 to 5 | – | O=C1c2c(nc3cccc(O)c3c2O)-c2cccn21 [Compound 470b, 8,9-dihydroxy-10H-pyrrolizino[1,2-b]quinolin-10-one] | 0.05 to 5 | 0.05 to 5 | 0.05 to 5 | 0.05 to 5 | 0.05 to 5 | 0.05 to 5 | – | – | – | – | – | –
2 | 0.1 to 1 | 5 to 20 | – | O=C1c2c(n(C3CC3)c3cc(N4CCNCC4)c(F)cc3c2=O)-c2cccn21 [Compound 340a, 4-Cyclopropyl-7-fluoro-6-(piperazin-1-yl)-9H-pyrrolizino[1,2-b]quinoline-9,10(4H)-dione] | 0.05 to 5 | 0.05 to 5 | 0.05 to 5 | 0.05 to 5 | 0.05 to 5 | 0.05 to 5 | – | – | – | – | – | –
3 | 0.1 to 1 | 0.05 to 5 | – | N#Cc1cccc2c(=O)c3c(n(Cc4cccc(F)c4)c12)-c1cccn1C3=O [Compound 454a, 4-(3-Fluorobenzyl)-9,10-dioxo-4,10-dihydro-9H-pyrrolizino[1,2-b]quinoline-5-carbonitrile] | 0.05 to 5 | 0.05 to 5 | 0.05 to 5 | 0.05 to 5 | 0.05 to 5 | 0.05 to 5 | – | – | – | – | – | –
4 | 1 to 10 | – | 0.05 to 5 | Cc1ccc(C)c2c(=O)c3c([nH]c12)C(=O)n1cccc1-3 [Compound 783a, 7,10-Dimethyl-5H-pyrrolizino[2,1-b]quinoline-5,11(6H)-dione] | – | – | – | – | – | – | 0.05 to 5 | 0.05 to 5 | 0.05 to 5 | 0.05 to 5 | < 0.05 | 0.05 to 5
5 | 1 to 10 | 0.05 to 5 | – | O=C1c2c(nc3cccc(F)c3c2O)-c2cccn21 [Compound 467b, 8-fluoro-9-hydroxy-10H-pyrrolizino[1,2-b]quinolin-10-one] | 0.05 to 5 | 0.05 to 5 | 0.05 to 5 | 0.05 to 5 | 0.05 to 5 | 0.05 to 5 | – | – | – | – | – | –
6 | 0.1 to 1 | 0.05 to 5 | – | O=C1c2c([nH]c3cc(N4CCNCC4)c(C(F)(F)F)cc3c2=O)-c2cccn21 [Compound 397a, 6-(Piperazin-1-yl)-7-(trifluoromethyl)-9H-pyrrolizino[1,2-b]quinoline-9,10(4H)-dione] | 0.05 to 5 | 0.05 to 5 | 0.05 to 5 | 0.05 to 5 | 0.05 to 5 | 0.05 to 5 | – | – | – | – | – | –
7 | 1 to 10 | 5 to 20 | – | CC(C)Oc1c2c(nc3ccc(F)cc13)-c1cccn1C2=O [Compound 108b, 7-fluoro-9-isopropoxy-10H-pyrrolizino[1,2-b]quinolin-10-one] | 0.05 to 5 | 0.05 to 5 | 0.05 to 5 | 0.05 to 5 | 0.05 to 5 | 0.05 to 5 | – | – | – | – | – | –
8 | 10 to 50 | – | 0.05 to 5 | Cc1cccc2c(=O)c3c([nH]c12)C(=O)n1cccc1-3 [Compound 779a, 7-Methyl-5H-pyrrolizino[2,1-b]quinoline-5,11(6H)-dione] | – | – | – | – | – | – | 0.05 to 5 | 0.05 to 5 | 0.05 to 5 | 0.05 to 5 | 0.05 to 5 | 0.05 to 5
9 | 1 to 10 | 0.05 to 5 | – | O=C1c2c(nc3ccc(Cl)cc3c2O)-c2cccn21 [Compound 180b, 7-chloro-9-hydroxy-10H-pyrrolizino[1,2-b]quinolin-10-one] | 0.05 to 5 | 0.05 to 5 | 0.05 to 5 | 0.05 to 5 | 0.05 to 5 | 0.05 to 5 | – | – | – | – | – | –
10 | 1 to 10 | 0.05 to 5 | – | CCOc1c2c(nc3ccc(F)cc13)-c1cccn1C2=O [Compound 104b, 9-ethoxy-7-fluoro-10H-pyrrolizino[1,2-b]quinolin-10-one] | 0.05 to 5 | 0.05 to 5 | 0.05 to 5 | 0.05 to 5 | 0.05 to 5 | 0.05 to 5 | – | – | – | – | – | –
11 | 1 to 10 | 0.05 to 5 | – | O=C1c2c(nc3cccc(F)c3c2OCc2ccc(Cl)cc2)-c2cccn21 [Compound 471b, 9-((4-chlorobenzyl)oxy)-8-fluoro-10H-pyrrolizino[1,2-b]quinolin-10-one] | 0.05 to 5 | 0.05 to 5 | 0.05 to 5 | 0.05 to 5 | 0.05 to 5 | 0.05 to 5 | – | – | – | – | – | –
12 | 10 to 50 | – | 0.05 to 5 | Cc1cc(C)c2[nH]c3c(c(=O)c2c1)-c1cccn1C3=O [Compound 780a, 7,9-Dimethyl-5H-pyrrolizino[2,1-b]quinoline-5,11(6H)-dione] | – | – | – | – | – | – | 0.05 to 5 | 0.05 to 5 | 0.05 to 5 | 0.05 to 5 | 0.05 to 5 | 0.05 to 5

Second part, the molecule before the results:

Row | Compound | IC50 [4] [µM] | IC50 [5, 11] [mM] | IC50 ([5]; HT-1080 cells, 48 h, CCK-8) [mM] | IC50 [1, 8] [mM] | IC50 [2, 9] [mM] | IC50 [3, 10] [mM] | IC50 [6, 12] [mM] | IC50 (BHK-21 cells; [13]) [mM] | IC50 [7, 14] [mM] | IC50 ([1]; LX-2, 48 h, LX-2 cells, CCK-8) [mM] | IC50 [2, 15] [mM] | IC50 ([3]; RAT-iCell-C002 cells, CCK-8) [mM] | IC50 ([6]; HFL1 cells, 48 h, CCK-8) [mM] | IC50 (BHK-21 cells; 48 h, CCK-8) [mM] | IC50 [7, 16] [mM]
13 | O=C1c2c(nc3cc(N4CCNCC4)c(OC(F)(F)F)cc3c2O)-c2cccn21 [Compound 409b, 9-hydroxy-6-(piperazin-1-yl)-7-(trifluoromethoxy)-10H-pyrrolizino[1,2-b]quinolin-10-one] | 1 to 10 | 0.05 to 5 | – | 0.05 to 5 | 0.05 to 5 | 0.05 to 5 | 0.05 to 5 | 0.05 to 5 | 0.05 to 5 | – | – | – | – | – | –
14 | O=C1c2c(nc3ccc(F)cc3c2Oc2ccc(Cl)cc2)-c2cccn21 [Compound 133b, 9-(4-chlorophenoxy)-7-fluoro-10H-pyrrolizino[1,2-b]quinolin-10-one] | 1 to 10 | 0.05 to 5 | – | 0.05 to 5 | 0.05 to 5 | 0.05 to 5 | 0.05 to 5 | 0.05 to 5 | 0.05 to 5 | – | – | – | – | – | –
15 | O=C1c2c([nH]c3cc(N4CCNCC4)c(Cl)cc3c2=O)-c2cccn21 [Compound 373a, 7-Chloro-6-(piperazin-1-yl)-9H-pyrrolizino[1,2-b]quinoline-9,10(4H)-dione] | 0.1 to 1 | 0.05 to 5 | – | 0.05 to 5 | 0.05 to 5 | 0.05 to 5 | 0.05 to 5 | 0.05 to 5 | 0.05 to 5 | – | – | – | – | – | –
16 | O=C1c2c(nc3cc(Cl)ccc3c2OCc2ccc(Cl)cc2)-c2cccn21 [Compound 508b, 6-chloro-9-((4-chlorobenzyl)oxy)-10H-pyrrolizino[1,2-b]quinolin-10-one] | 1 to 10 | < 0.05 | – | 0.05 to 5 | 0.05 to 5 | 0.05 to 5 | 0.05 to 5 | 0.05 to 5 | 0.05 to 5 | – | – | – | – | – | –
17 | C=CCOc1c2c(nc3cc(N4CCNCC4)c(F)cc13)-c1cccn1C2=O [Compound 349b, 9-(allyloxy)-7-fluoro-6-(piperazin-1-yl)-10H-pyrrolizino[1,2-b]quinolin-10-one] | 1 to 10 | 0.05 to 5 | – | 0.05 to 5 | 0.05 to 5 | 0.05 to 5 | 0.05 to 5 | 0.05 to 5 | 0.05 to 5 | – | – | – | – | – | –
18 | O=C1c2c(nc3cc(F)ccc3c2OCc2cccc(F)c2)-c2cccn21 [Compound 491b, 6-fluoro-9-((3-fluorobenzyl)oxy)-10H-pyrrolizino[1,2-b]quinolin-10-one] | 1 to 10 | 0.05 to 5 | – | 0.05 to 5 | 0.05 to 5 | 0.05 to 5 | 0.05 to 5 | 0.05 to 5 | 0.05 to 5 | – | – | – | – | – | –
19 | O=C1c2c(nc3cccc(C(F)(F)F)c3c2OCc2ccccc2Cl)-c2cccn21 [Compound 472b, 9-((2-chlorobenzyl)oxy)-8-(trifluoromethyl)-10H-pyrrolizino[1,2-b]quinolin-10-one] | 1 to 10 | 0.05 to 5 | – | 0.05 to 5 | 0.05 to 5 | 0.05 to 5 | 0.05 to 5 | 0.05 to 5 | 0.05 to 5 | – | – | – | – | – | –
20 | CC(C)Oc1c2c(nc3cc(N4CCNCC4)c(F)cc13)-c1cccn1C2=O [Compound 331b, 7-fluoro-9-isopropoxy-6-(piperazin-1-yl)-10H-pyrrolizino[1,2-b]quinolin-10-one] | 1 to 10 | < 0.05 | – | 0.05 to 5 | 0.05 to 5 | 0.05 to 5 | 0.05 to 5 | 0.05 to 5 | 0.05 to 5 | – | – | – | – | – | –
21 | O=C1c2c(nc3ccc(C(F)(F)F)cc3c2Oc2ccc(F)cc2)-c2cccn21 [Compound 259b, 9-(4-fluorophenoxy)-7-(trifluoromethyl)-10H-pyrrolizino[1,2-b]quinolin-10-one] | 1 to 10 | 0.05 to 5 | – | 0.05 to 5 | < 0.05 | 0.05 to 5 | 0.05 to 5 | 0.05 to 5 | 5 to 20 | – | – | – | – | – | –
